Results: patent US20240368157A1, “FORMS AND COMPOSITIONS OF A JAK2 INHIBITOR” (Ajax Therapeutics, Inc., priority 2023, published 2024)

Experiments:
physchem = settings: water
[1] = Slurry in water at ambient temperature (XRPD); format: physicochemical; settings: 3 days
[2] = Dynamic vapor sorption (DVS); format: physicochemical; settings: for Hysteresis: in % (unit assumed)
Description: Moisture sorption/desorption data were collected on a Surface Measurement System DVS Intrinsic instrument. Samples were not dried prior to analysis. Sorption and desorption data were collected over a range from 5% to 95% RH to 5% RH at 10% RH increments under a nitrogen purge. The equilibrium criterion used for analysis was less than 0.0100% weight change in 5 minutes with a maximum equilibration time of 3 hours. Data were not corrected for the initial moisture content of the samples.

In the case of `CN(C)C(=O)Nc1cc(Oc2cnc3nc(Nc4cc(C(F)(F)F)cn(C)c4=O)n(C)c3c2C#N)ccn1` [Form F], the solubility (physchem) is reported as less than 1000 µg/mL, the “solid form after slurry in water (XRPD)” value [1] is reported as “converted completely to Form C” and the “Desorp Mass Change (%)” value ([2]; DVS cycle 1, target RH 5%) is reported as −0.2589%. For the same molecule, the “Sorp Mass Change (%)” value ([2]; DVS cycle 1, target RH 5%) was 0.0100%, the “Desorp Mass Change (%)” value ([2]; DVS cycle 1, target RH 15%) was −0.2193% and the “Sorp Mass Change (%)” value ([2]; DVS cycle 1, target RH 15%) was −0.0114%. The Hysteresis ([2]; DVS cycle 1, target RH 15%) was −0.2079, the “Desorp Mass Change (%)” value ([2]; DVS cycle 1, target RH 25%) was −0.1841% and the “Sorp Mass Change (%)” value ([2]; DVS cycle 1, target RH 25%) was −0.0296%. The Hysteresis ([2]; DVS cycle 1, target RH 25%) was −0.1545, the “Desorp Mass Change (%)” value ([2]; DVS cycle 1, target RH 35%) was −0.1477% and the “Sorp Mass Change (%)” value ([2]; DVS cycle 1, target RH 35%) was −0.0296%. For the same molecule, the Hysteresis ([2]; DVS cycle 1, target RH 35%) was −0.1181, the “Desorp Mass Change (%)” value ([2]; DVS cycle 1, target RH 45%) was −0.1031% and the “Sorp Mass Change (%)” value ([2]; DVS cycle 1, target RH 45%) was −0.0202%. The Hysteresis ([2]; DVS cycle 1, target RH 45%) was −0.0829, the “Desorp Mass Change (%)” value ([2]; DVS cycle 1, target RH 55%) was −0.0428% and the “Sorp Mass Change (%)” value ([2]; DVS cycle 1, target RH 55%) was 0.0018%. The Hysteresis ([2]; DVS cycle 1, target RH 55%) was −0.0446, the “Desorp Mass Change (%)” value ([2]; DVS cycle 1, target RH 65%) was 0.0238% and the “Sorp Mass Change (%)” value ([2]; DVS cycle 1, target RH 65%) was 0.0282%. For the same molecule, the Hysteresis ([2]; DVS cycle 1, target RH 65%) was −0.0044, the “Desorp Mass Change (%)” value ([2]; DVS cycle 1, target RH 75%) was 0.0797% and the “Sorp Mass Change (%)” value ([2]; DVS cycle 1, target RH 75%) was 0.0741%. For the same molecule, the Hysteresis ([2]; DVS cycle 1, target RH 75%) was 0.0057, the “Desorp Mass Change (%)” value ([2]; DVS cycle 1, target RH 85%) was 0.1545% and the “Sorp Mass Change (%)” value ([2]; DVS cycle 1, target RH 85%) was 0.1344%. For the same molecule, the Hysteresis ([2]; DVS cycle 1, target RH 85%) was 0.0201, the “Desorp Mass Change (%)” value ([2]; DVS cycle 1, target RH 95%) was 0.2669% and the “Sorp Mass Change (%)” value ([2]; DVS cycle 1, target RH 95%) was 0.2669%. The “weight gain during sorption” value ([2]; DVS, 5-95% RH) was 0.3%, the “weight loss during the desorption step” value ([2]; DVS, 95-5% RH) was 0.5% and the “XRPD pattern of the post-DVS sample” value ([2]; after DVS experiment) was “consistent with Form F”. For the same molecule, the hygroscopicity ([2]; judged from DVS sorption/desorption) was “non-hygroscopic”.
